From patent publication US8466181B2, “1,2,3-triazole-imidazole compounds” (Hoffmann-La Roche Inc., priority 2010, dated 2013)

molecular target: T1, human GABA A receptor α5β3γ2 (GABA Aa5) (Homo sapiens, UniProt P18507+P31644); assay: [3H]flumazenil competition binding, HEK293 cells expressing human receptors; settings: displacement of [3H]flumazenil 0.5 nM; HEK293 transiently transfected human receptors; means of two determinations; read-out: hKi (GABA Aa5)
T1 construct: expressed in transfected cells; host or cells: HEK293 cells, transiently transfected; membranes prepared
Description: The ability of compounds present invention to bind to GABA A receptor subtypes was determined by competition for [^3H]flumazenil (85 Ci/mmol; Roche) binding to HEK293 cells expressing rat (stably transfected) or human (transiently transfected) receptors of composition α1β2/3γ2, α2β3γ2, α3β3γ2 and α5β3γ2.
Cell pellets were suspended in Krebs-tris buffer (4.8 mM KCl, 1.2 mM CaCl2, 1.2 mM MgCl2, 120 mM NaCl, 15 mM Tris; pH 7.5; binding assay buffer), homogenized by polytron for ca. 20 sec on ice and centrifuged for 60 min at 4° C. (50000 g; Sorvall, rotor: SM24=20000 rpm). The cell pellets were resuspended in Krebs-tris buffer and homogenized by polytron for ca. 15 sec on ice. Protein was measured (Bradford method, Bio-Rad) and aliquots of 1 mL were prepared and stored at −80° C.
Assays were incubated to equilibrium for 1 hour at 4° C. and harvested onto GF/C uni-filters (Packard) by filtration using a Packard harvester and washing with ice-cold wash buffer (50 mM Tris; pH 7.5). After drying, filter-retained radioactivity was detected by liquid scintillation counting.
Ki values were calculated using Excel-Fit (Microsoft) and are the means of two determinations.
Representative test results, obtained by the above described assay measuring binding affinity to HEK293 cells expressing human (h) receptors, are shown in Table 1 below.

Structure (SMILES)	Ki [nM]
Cc1nnn(-c2ccc(F)cc2)c1-c1cn(-c2ccc(C(F)(F)F)cn2)cn1 [Example 34, 2-{4-[3-(4-Fluoro-phenyl)-5-methyl-3H-[1,2,3]triazol-4-yl]-imidazol-1-yl}-5-trifluoromethyl-pyridine]	45.6
COC(=O)c1ccc(-n2cnc(-c3c(C)nnn3-c3ccc(F)cc3)c2)nc1 [Example 35, Methyl 6-(4-(1-(4-fluorophenyl)-4-methyl-1H-1,2,3-triazol-5-yl)-1H-imidazol-1-yl)nicotinate]	26.3
Cc1nnn(-c2ccc(F)cc2)c1-c1cn(-c2ccc(C(=O)NC3CCOCC3)cn2)cn1 [Example 37, 6-{4-[3-(4-Fluoro-phenyl)-5-methyl-3H-[1,2,3]triazol-4-yl]-imidazol-1-yl}-N-(tetrahydropyran-4-yl)-nicotinamide]	25.9
Cc1nnn(-c2ccc(F)cc2)c1-c1cn(-c2ccc(C(=O)NC3(C)COC3)cn2)cn1 [Example 38, 6-(4-(1-(4-Fluorophenyl)-4-methyl-1H-1,2,3-triazol-5-yl)-1H-imidazol-1-yl)-N-(3-methyloxetan-3-yl)nicotinamide]	9.6
Cc1nnn(-c2ccc(F)cc2)c1-c1cn(-c2ccc(C(=O)N3CC4(COC4)C3)cn2)cn1 [Example 39, (6-(4-(1-(4-Fluorophenyl)-4-methyl-1H-1,2,3-triazol-5-yl)-1H-imidazol-1-yl)pyridin-3-yl)(2-oxa-6-azaspiro[3.3]heptan-6-yl)methanone]	35.8
Cc1nnn(-c2ccc(F)cc2)c1-c1cn(-c2ccc(C(N)=O)cn2)cn1 [Example 40, 6-(4-(1-(4-Fluorophenyl)-4-methyl-1H-1,2,3-triazol-5-yl)-1H-imidazol-1-yl)nicotinamide]	12.6
Cc1nnn(-c2ccc(F)cc2)c1-c1cn(-c2ccc(C(=O)NC(C)(C)CO)cn2)cn1 [Example 41, 6-(4-(1-(4-Fluorophenyl)-4-methyl-1H-1,2,3-triazol-5-yl)-1H-imidazol-1-yl)-N-(1-hydroxy-2-methylpropan-2-yl)nicotinamide]	20.8
Cc1nnn(-c2ccc(F)cc2)c1-c1cn(-c2ccc(C(=O)NC3CC3)cn2)cn1 [Example 42, N-Cyclopropyl-6-(4-(1-(4-fluorophenyl)-4-methyl-1H-1,2,3-triazol-5-yl)-1H-imidazol-1-yl)nicotinamide]	3.2
Cc1nnn(-c2ccccc2F)c1-c1cn(-c2ccc(C(=O)NC(C)C)cn2)cn1 [Example 43, 6-(4-(1-(2-Fluorophenyl)-4-methyl-1H-1,2,3-triazol-5-yl)-1H-imidazol-1-yl)-N-isopropylnicotinamide]	15.1
Cc1nnn(-c2ccc(F)cc2)c1-c1cn(-c2ccc(C(=O)N3CCS(=O)(=O)CC3)cn2)cn1 [Example 44, (1,1-Dioxo-1,6-thiomorpholin-4-yl)-(6-{4-[3-(4-fluoro-phenyl)-5-methyl-3H-[1,2,3]triazol-4-yl]-imidazol-1-yl}-pyridin-3-yl)-methanone]	29
Cc1nnn(-c2ccc(F)cc2)c1-c1cn(-c2ccc(C(=O)NN3CCOCC3)cn2)cn1 [Example 45, 6-(4-(1-(4-Fluorophenyl)-4-methyl-1H-1,2,3-triazol-5-yl)-1H-imidazol-1-yl)-N-morpholinonicotinamide]	69.4
Cc1nnn(-c2ccccc2F)c1-c1cn(-c2ccc(C(=O)NC3CCOCC3)cn2)cn1 [Example 46, 6-(4-(1-(2-Fluorophenyl)-4-methyl-1H-1,2,3-triazol-5-yl)-1H-imidazol-1-yl)-N-(tetrahydro-2H-pyran-4-yl)nicotinamide]	49
Cc1nnn(-c2ccccc2F)c1-c1cn(-c2ccc(C(=O)NC(C)(C)CO)cn2)cn1 [Example 47, 6-(4-(1-(2-Fluorophenyl)-4-methyl-1H-1,2,3-triazol-5-yl)-1H-imidazol-1-yl)-N-(1-hydroxy-2-methylpropan-2-yl)nicotinamide]	51.7
Cc1nnn(-c2ccccc2F)c1-c1cn(-c2ccc(C(N)=O)cn2)cn1 [Example 48, 6-(4-(1-(2-Fluorophenyl)-4-methyl-1H-1,2,3-triazol-5-yl)-1H-imidazol-1-yl)nicotinamide]	17.8
Cc1nnn(-c2ccccc2F)c1-c1cn(-c2ccc(C(=O)N3CC4(COC4)C3)cn2)cn1 [Example 49, (6-(4-(1-(2-Fluorophenyl)-4-methyl-1H-1,2,3-triazol-5-yl)-1H-imidazol-1-yl)pyridin-3-yl)(2-oxa-6-azaspiro[3.3]heptan-6-yl)methanone]	90
Cc1nnn(-c2ccccc2F)c1-c1cn(-c2ccc(C(=O)NC3(C)COC3)cn2)cn1 [Example 50, 6-(4-(1-(2-Fluorophenyl)-4-methyl-1H-1,2,3-triazol-5-yl)-1H-imidazol-1-yl)-N-(3-methyloxetan-3-yl)nicotinamide]	17.9
Cc1nnn(-c2ccccc2F)c1-c1cn(-c2ccc(C(=O)NN3CCOCC3)cn2)cn1 [Example 51, 6-(4-(1-(2-Fluorophenyl)-4-methyl-1H-1,2,3-triazol-5-yl)-1H-imidazol-1-yl)-N-morpholinonicotinamide]	50.5
Cc1nnn(-c2ccccc2F)c1-c1cn(-c2ccc(C(=O)NC3CC3)cn2)cn1 [Example 52, N-Cyclopropyl-6-(4-(1-(2-fluorophenyl)-4-methyl-1H-1,2,3-triazol-5-yl)-1H-imidazol-1-yl)nicotinamide]	10.9
Cc1nnn(-c2ccccc2F)c1-c1cn(-c2ccc(C(=O)NCC3CC3)cn2)cn1 [Example 53, N-(Cyclopropylmethyl)-6-(4-(1-(2-fluorophenyl)-4-methyl-1H-1,2,3-triazol-5-yl)-1H-imidazol-1-yl)nicotinamide]	32.7
